Experimental data from patent US11046932B2, “Method of producing renal cells from differentiated cells” (priority 2016, dated 2021).

How the values were obtained:
[1] = biological target: organic cation transporter 2 (Oct2) (Mus musculus, UniProt O70577); settings: 6 μg/ml cisplatin and 1 mM cimetidine versus cisplatin alone
Description: Drug treated cells and untreated controls were stained with 1 μg/ml DAPI (Invitrogen, D1306) for 5 minutes and fluorescence was measured via flow cytometry using the 405 nm laser for excitation. Dead cells were identified by comparing emission of DAPI stained cell and unstained controls using a 450/50 nm band pass filter. For Kim-1 expression analysis MEFs and iRECs were treated with Gentamicin (1 mg/ml for 48 h), stained for Kim-1 (Miltenyi Biiotec, 130-106-024) and analyzed by flow cytometry. […] Cells were harvested and analyzed as described above. Experiments were performed in triplicates and repeated three times.

[2] = system: mouse embryonic fibroblasts (MEFs); assay: Reprogramming efficiency: GFP-positive cells by flow cytometry in KSP-Cre mTOM/mGFP reporter MEFs; format: cell-based; settings: added to culture medium of 4TF treated MEFs for 7 days: Vitamin C 50 μg/ml, CHIR99021 3 μM, Forskolin 10 μM, Valproic Acid 1 mM, 5-Azacytidine 2 μM
Description: Next, we expressed candidate transcription factors in isolated MEFs by lentiviral transduction and analyzed GFP reporter-expression by flow cytometry (FIG. 2a and FIG. 11a).
Tissue was minced with a scalpel and digested with 0.25% Trypsin-EDTA for 30 min at 37° C. Trypsinization was stopped by addition of MEF Medium (MEFM: Dulbecco's modified Eagle's medium (DMEM), 10% fetal bovine serum (FBS), 2 mM L-glutamine, penicillin/streptomycin). After resuspension the cells were centrifuged and the pellet was resuspended in MEFM and plated on gelatine-coated 6-well plates for 3 days until they reached confluency. […] MEFs, TTFs and human fibroblasts were frozen in liquid nitrogen and used without further passaging for reprogramming experiments. For efficiency improvement experiments the following substances were added to the cell culture medium for 7 days: Vitamin C (Sigma, 50 μg/ml); CHIR99021 (Sigma, 3 μM); Forskolin (FocusBiomolecules, 10 μM); Valproic Acid (Sigma, 1 mM); 5-Azacytidine (Sigma, 2 μM).
For the infection of MEFs, TTFs, HFoFs and HFeFs virus concentrate was diluted 1:100 (high viral titers) to 1:1000 (low viral titers) in MEFM containing 10 μg/ml Polybrene and cells were incubated for 12 h. Viral infection was repeated five to seven times. After cultivation in MEFM for 7 days, MEFs and TTFs were analyzed for GFP expression by flow cytometry.
For flow cytometry analyses, cells were harvested, resuspended in FACS buffer (PBS supplemented with 3% FBS and 5 mM EDTA), filtered through a 50 μm cell strainer and analyzed using the 13-color LCR Fortessa FACS analyzer (Becton Dickinson).

[3] = system: iRECs; assay: Cytotoxicity assay (dead/apoptotic cells by DAPI flow cytometry) in iRECs versus MEFs; format: cell-based; settings: Cisplatin 6 μg/ml 24 h; Tacrolimus 40 μM 24 h; Gentamicin 1 mg/ml 48 h
Description: (§1) Cells were harvested and analyzed as described above. Experiments were performed in triplicates and repeated three times.

[4] = system: iRECs; assay: Kim-1 expression analysis by flow cytometry after drug treatment; format: cell-based, mouse; settings: Gentamicin 1 mg/ml for 48 h
Description: as §1

organic cation transporter 2 (Oct2), sequence (O70577 whole entry): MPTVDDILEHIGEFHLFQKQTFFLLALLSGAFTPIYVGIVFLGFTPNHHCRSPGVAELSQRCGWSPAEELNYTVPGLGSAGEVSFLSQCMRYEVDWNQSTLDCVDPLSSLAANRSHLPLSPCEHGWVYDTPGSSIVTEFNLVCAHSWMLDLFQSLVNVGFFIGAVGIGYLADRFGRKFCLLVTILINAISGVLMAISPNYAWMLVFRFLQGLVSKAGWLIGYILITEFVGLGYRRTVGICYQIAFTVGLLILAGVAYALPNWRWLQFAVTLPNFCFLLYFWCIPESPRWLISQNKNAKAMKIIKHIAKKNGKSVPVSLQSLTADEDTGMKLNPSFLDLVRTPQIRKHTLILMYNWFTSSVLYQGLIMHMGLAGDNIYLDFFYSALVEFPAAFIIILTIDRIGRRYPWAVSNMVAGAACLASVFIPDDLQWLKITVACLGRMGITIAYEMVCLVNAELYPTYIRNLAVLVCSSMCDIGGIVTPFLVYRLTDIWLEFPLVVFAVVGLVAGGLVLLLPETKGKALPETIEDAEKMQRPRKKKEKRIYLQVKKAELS

| Compound | effect on the percentage of GFP-positive cells [2] | further results |
| --- | --- | --- |
| CN/C(=N/CCSCc1nc[nH]c1C)NC#N [Cimetidine] |  | cisplatin induced toxicity in iRECs [1]: decreased |
| O=C1O[C@H]([C@@H](O)CO)C(O)=C1O [Vitamin C] | did not have an effect |  |
| Gentamicin |  | rate of apoptosis in treated iRECs compared to MEFs [3]: significantly higher; Kidney injury molecule 1 (KIM1) in iRECs [4]: markedly increased |
| CCCC(CCC)C(=O)O [valproic acid] | did not have an effect |  |
| Nc1ncn([C@@H]2O[C@H](CO)[C@@H](O)[C@H]2O)c(=O)n1 [5 azacytidine, 5-azacytidine] | did not have an effect |  |
| Cc1c[nH]c(-c2cnc(NCCNc3ccc(C#N)cn3)nc2-c2ccc(Cl)cc2Cl)n1 [CHIR99021] | did not have an effect |  |
